Some results are limits rather than exact numbers.

The target in this assay is USP1/UAF1 enzyme (Homo sapiens, UniProt O94782). Briefly: USP1/UAF1 deubiquitination assay (ubiquitin-rhodamine 110 substrate). The note with it: read-out: USP1 IC50 (Ub-Rho). Type of assay: biochemical. On the procedure: Certain Compounds of the Disclosure were assessed for USP1/UAF1 activity in a Ubiquitin Rhodamine assay modified from those described previously.
USP1/UAF1 enzyme, sequence (O94782 whole entry): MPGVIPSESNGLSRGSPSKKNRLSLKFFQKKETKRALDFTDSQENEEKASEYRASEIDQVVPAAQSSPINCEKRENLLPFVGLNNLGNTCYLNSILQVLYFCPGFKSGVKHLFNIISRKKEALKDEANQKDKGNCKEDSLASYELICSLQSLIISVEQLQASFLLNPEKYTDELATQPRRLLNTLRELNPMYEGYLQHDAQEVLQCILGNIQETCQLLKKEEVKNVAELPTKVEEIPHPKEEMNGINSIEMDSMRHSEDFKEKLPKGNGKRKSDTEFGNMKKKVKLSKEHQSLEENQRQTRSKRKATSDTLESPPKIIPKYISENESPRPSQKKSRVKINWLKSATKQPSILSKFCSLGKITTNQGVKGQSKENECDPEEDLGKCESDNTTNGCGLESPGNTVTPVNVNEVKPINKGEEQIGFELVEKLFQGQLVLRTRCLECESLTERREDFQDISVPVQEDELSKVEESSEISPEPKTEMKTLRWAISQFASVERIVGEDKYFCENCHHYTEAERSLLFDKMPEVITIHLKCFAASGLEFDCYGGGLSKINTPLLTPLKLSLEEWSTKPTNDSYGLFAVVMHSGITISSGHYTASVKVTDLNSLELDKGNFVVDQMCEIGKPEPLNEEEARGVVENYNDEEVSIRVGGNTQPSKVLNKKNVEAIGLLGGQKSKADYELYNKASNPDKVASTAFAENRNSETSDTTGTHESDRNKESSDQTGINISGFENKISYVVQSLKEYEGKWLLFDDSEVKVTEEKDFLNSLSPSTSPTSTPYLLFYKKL
USP1/UAF1 enzyme, sequence (Q8TAF3 whole entry partner): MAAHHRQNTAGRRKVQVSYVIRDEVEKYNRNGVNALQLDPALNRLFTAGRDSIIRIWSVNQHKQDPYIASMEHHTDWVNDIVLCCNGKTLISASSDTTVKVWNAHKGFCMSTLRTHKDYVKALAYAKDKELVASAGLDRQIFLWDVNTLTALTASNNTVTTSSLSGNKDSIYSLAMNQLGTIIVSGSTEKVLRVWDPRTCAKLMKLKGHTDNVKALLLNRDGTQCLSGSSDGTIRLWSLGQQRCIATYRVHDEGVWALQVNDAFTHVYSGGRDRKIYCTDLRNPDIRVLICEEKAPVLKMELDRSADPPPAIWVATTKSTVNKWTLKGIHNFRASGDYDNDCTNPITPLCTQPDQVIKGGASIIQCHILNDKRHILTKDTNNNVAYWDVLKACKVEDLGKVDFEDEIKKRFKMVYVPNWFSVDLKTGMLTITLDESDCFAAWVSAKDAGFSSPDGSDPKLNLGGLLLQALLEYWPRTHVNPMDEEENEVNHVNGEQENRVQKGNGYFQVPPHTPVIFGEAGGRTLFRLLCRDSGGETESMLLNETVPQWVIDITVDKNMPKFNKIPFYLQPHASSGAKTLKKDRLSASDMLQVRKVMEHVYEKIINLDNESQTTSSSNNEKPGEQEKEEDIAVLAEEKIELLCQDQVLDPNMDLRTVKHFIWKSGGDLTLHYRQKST
Deubiquitinase activity was measured using ubiquitin-rhodamine 110 as a substrate. Cleavage of the amide bond between rhodamine and the c-terminal glycine of ubiquitin yields an increase in fluorescence signal. The assay was conducted in 20 μl total volume of assay buffer (50 mM Tris-HCl, pH 7.8, 0.5 mM EDTA, 0.01% Bovine Serum Albumin, 1 mM DTT, 0.01% Tween-20), and 0.05 nM USP1/UAF1 enzyme. Reaction was initiated by addition of 150 nM Ubiquitin-rhodamine (Boston Biochem) substrate.
Compounds of the Disclosure, dissolved in DMSO were tested in dose response format, beginning at […].
The example compounds listed below were added to enzyme/assay buffer mix and incubated 10 min. Substrate mix was added, and reaction mix was read in kinetic mode for 30 min at Ex480/Em540 and IC50 response curves were plotted.
Data for all assay formats was calculated as percent inhibition compared with control wells. Percent inhibition was calculated using the following equation: % inhibition=100×[1−(X−min)/(max−min)], where X is the raw data readout, min is the average of the no enzyme control wells (n=32), max is the average of the DMSO control well (n=32). IC50 values were calculated using the standard four parameter curve fitting algorithm in either Prism GraphPad (La Jolla, Calif.) software, or Collaborative Drug Discovery (Burlingame, Calif.) CDD Vault. See Chem. Biol. 20(1): 55-62 (Jan. 24, 2013); Bioorg. Med. Chem. Lett. 23(20): 5660-5666 (Oct. 15, 2013).
On to `COc1cc(CN2C(=O)CCn3nc(-c4c(Cl)cnn4C(C)C)cc32)ccc1-c1ncccc1Cl` [Example 311], for which the IC50 was greater than 500 nM.

For the compound `CCn1cc(C(F)(F)F)nc1-c1ccc(CN2C(=O)CCn3nc(-c4c(Cl)cnn4C(C)C)c(N)c32)cc1` [Example 229, 3-amino-2-(4-chloro-1-isopropyl-1H-pyrazol-5-yl)-4-(4-(1-ethyl-4-(trifluoromethyl)-1H-imidazol-2-yl)benzyl)-6,7-dihydropyrazolo[1,5-α]pyrimidin-5(4H)-one], the IC50 is 100 to 500 nM. For `CCn1cc(C(F)(F)F)nc1-c1ccc(N(C)C2CCCc3nn(-c4ccccc4C(C)C)cc32)cc1F` (centres unmarked) [Example 356, N-(4-(1-ethyl-4-(trifluoromethyl)-1H-imidazol-2-yl)-3-fluorophenyl)-2-(2-isopropylphenyl)-N-methyl-4,5,6,7-tetrahydro-2H-indazol-4-amine] the value was 100 to 500 nM; for `COc1ncnc(C2CC2)c1-c1cc2n(n1)CCC(=O)N2Cc1ccc(-n2nc(C(F)(F)F)cc2OC)nc1` [Example 94], 100 to 500 nM. Regarding `CCn1cc(C(F)(F)F)nc1-c1ccc(CN2C(=O)CCn3nc(-c4c(F)cnn4C(C)C)cc32)cc1` [Example 85], the IC50 was in the range of 100 to 500 nM. As for `Cc1cn2ccnc(-c3ccc(CN4C(=O)CCn5nc(-c6c(Cl)cnn6C(C)C)cc54)cc3Cl)c2n1` [Example 275], the IC50 lay within 100 to 500 nM. As to `COc1cccnc1-c1ccc(CN2C(=O)CCn3nc(-c4c(OC)ncnc4C4CC4)nc32)cc1Cl` [Example 306], the IC50 was in the range of 100 to 500 nM. With `CCn1cc(C(F)(F)F)nc1-c1ccc(CN2C(=O)CCn3nc(-c4c(OC(F)F)cnn4C(C)C)cc32)cc1F` [Example 329, 2-(4-(difluoromethoxy)-1-isopropyl-1H-pyrazol-5-yl)-4-(4-(1-ethyl-4-(trifluoromethyl)-1H-imidazol-2-yl)-3-fluorobenzyl)-6,7-dihydropyrazolo[1,5-α]pyrimidin-5(4H)-one], the IC50 lay in the range of 100 to 500 nM. Take `CC(C)n1ncc(Cl)c1-c1cc2n(n1)CCC(=O)N2Cc1ccc(-c2ncccc2C(F)(F)F)c(Cl)c1` [Example 283]: the IC50 is greater than 500 nM. Regarding `COc1nccnc1-c1ccc(CN2C(=O)CCn3nc(-c4c(Cl)cnn4C(C)C)cc32)cc1Cl` [Example 274], the IC50 lay in the range of 100 to 500 nM. With `Cn1cc(C(F)(F)F)nc1-c1ccc(CN2C(=O)CCn3nc(-c4c(OC(F)F)ncnc4C4CC4)nc32)cc1` [Example 368, 2-(4-cyclopropyl-6-(difluoromethoxy)pyrimidin-5-yl)-4-(4-(1-methyl-4-(trifluoromethyl)-1H-imidazol-2-yl)benzyl)-6,7-dihydro-[1,2,4]triazolo[1,5-a]pyrimidin-5(4H)-one] the figure was less than 100 nM; with `CCn1cc(C(F)(F)F)nc1-c1ccc(CN2C(=O)CCn3nc(-c4c(OC)ncnc4C4CC4)cc32)cc1OC` [Example 136], 100 to 500 nM.

With `CC(C)n1ncc(Cl)c1-c1cc2n(n1)CCC(=O)N2Cc1ccc(-c2ncccc2OC(F)F)c(Cl)c1` [Example 271, 2-(4-chloro-1-isopropyl-1H-pyrazol-5-yl)-4-(3-chloro-4-(3-(difluoromethoxy)pyridin-2-yl)benzyl)-6,7-dihydropyrazolo[1,5-α]pyrimidin-5(4H)-one], the IC50 fell in the range of 100 to 500 nM. Consider `COc1ncnc(C2CC2)c1-c1cc2n(n1)CCCC2Nc1ccc(-c2nc(C(F)(F)F)cn2CCF)cc1` (centres unmarked) [Example 387, 2-(4-cyclopropyl-6-methoxypyrimidin-5-yl)-N-(4-(1-(2-fluoroethyl)-4-(trifluoromethyl)-1H-imidazol-2-yl)phenyl)-4,5,6,7-tetrahydropyrazolo[1,5-a]pyridin-4-amine], for which the IC50 is less than 100 nM.

Consider `CCn1cc(C(F)(F)F)nc1-c1ccc(CN2C(=O)CCn3nc(-c4c(OC)ncnc4OC)cc32)cc1` [Example 5, 2-(4,6-dimethoxypyrimidin-5-yl)-4-(4-(1-ethyl-4-(trifluoromethyl)-1H-imidazol-2-yl)benzyl)-6,7-dihydropyrazolo[1,5-a]pyrimidin-5(4H)-one], for which the IC50 is 100 to 500 nM. Turning to `COc1ncnc(C2CC2)c1-c1cc2n(n1)CCC(=O)N2C(C)c1ccc(-c2nc(C(F)(F)F)cn2C)cc1` (centres unmarked) [Example 3, 2-(4-cyclopropyl-6-methoxypyrimidin-5-yl)-4-(1-(4-(1-methyl-4-(trifluoromethyl)-1H-imidazol-2-yl)phenyl)ethyl)-6,7-dihy dropyrazolo[1,5-a]pyrimidin-5(4H)-one], the IC50 was 100 to 500 nM. For the compound `CC(C)n1ncc(Cl)c1-c1cc2n(n1)CCC(=O)N2Cc1ccc(-c2ncnn3cccc23)c(Cl)c1` [Example 276], the IC50 fell in the range of 100 to 500 nM. With `COc1cncnc1-c1ccc(CN2C(=O)CCn3nc(-c4c(Cl)cnn4C(C)C)cc32)cc1Cl` [Example 318] the figure was greater than 500 nM; with `COc1ncnc(C)c1-c1cc2n(n1)CCCN2Cc1ccc(-n2nc(C(F)(F)F)cc2C)cc1` [Example 26], 100 to 500 nM.

Take `COc1cccnc1-c1ccc(N[C@H]2CCCn3nc(-c4c(OC)ncnc4C4CC4)cc32)cc1Cl` (single isomer, unassigned) [Example 254]: the IC50 fell in the range of 100 to 500 nM.

Consider `CC(C)n1ncc(Cl)c1-c1nc2n(n1)CCC(=O)N2Cc1ccc(-c2ncccc2OCC(F)F)cc1` [Example 322], for which the IC50 fell in the range of 100 to 500 nM. With `Cc1ccc(F)c(-c2ccc(CN3C(=O)CCn4nc(-c5c(Cl)cnn5C(C)C)cc43)cc2Cl)n1` [Example 282], the IC50 was greater than 500 nM. For `CC(C)Oc1cccnc1-c1ccc(CN2C(=O)CCn3nc(-c4c(Cl)cnn4C(C)C)nc32)cc1Cl` [Example 302], the IC50 lay within 100 to 500 nM. With `CCn1cc(C(F)(F)F)nc1-c1ccc(CN2C(=O)CCn3nc(-c4c(C(C)(C)C)cnn4C)cc32)cc1` [Example 157], the IC50 is 100 to 500 nM.

Regarding `CC(C)n1cc(C(F)(F)F)nc1-c1ccc(CN2C(=O)CCn3nc(-c4c(OC(F)F)ncnc4C4CC4)nc32)cc1` [Example 369, 2-(4-cyclopropyl-6-(difluoromethoxy)pyrimidin-5-yl)-4-(4-(1-isopropyl-4-(trifluoromethyl)-1H-imidazol-2-yl)benzyl)-6,7-dihydro-[1,2,4]triazolo[1,5-a]pyrimidin-5(4H)-one], the IC50 was less than 100 nM. Regarding `CC(C)n1ncc(Cl)c1-c1cc2n(n1)CCC(=O)N2Cc1ccc(-n2ccc(N3CCOCC3)n2)cc1` [Example 230, 2-(4-chloro-1-isopropyl-1H-pyrazol-5-yl)-4-(4-(3-morpholino-1H-pyrazol-1-yl)benzyl)-6,7-dihydropyrazolo[1,5-α]pyrimidin-5(4H)-one], the IC50 was greater than 500 nM. Consider `CCn1cc(C(F)(F)F)nc1-c1ccc(CC2NCCn3nc(-c4c(OC)ncnc4C4CC4)cc32)cc1` (centres unmarked) [Example 361, 2-(4-cyclopropyl-6-methoxypyrimidin-5-yl)-4-(4-(1-ethyl-4-(trifluoromethyl)-1H-imidazol-2-yl)benzyl)-4,5,6,7-tetrahydropyrazolo[1,5-a]pyrazine], for which the IC50 lay in the range of 100 to 500 nM. With `CCn1cc(C(F)(F)F)nc1-c1ccc(Cn2c(=O)c(C)cn3nc(-c4c(OC(F)F)ncnc4C4CC4)nc23)cc1` [Example 392, 2-(4-cyclopropyl-6-(difluoromethoxy)pyrimidin-5-yl)-4-(4-(1-ethyl-4-(trifluoromethyl)-1H-imidazol-2-yl)benzyl)-6-methyl-[1,2,4]triazolo[1,5-a]pyrimidin-5(4H)-one], the IC50 was less than 100 nM.

Consider `CCn1cc(C(F)(F)F)nc1-c1ccc(CN2C(=O)CCn3nc(-c4cccc5c4N(C)CC5)cc32)cc1` [Example 23, 4-(4-(1-ethyl-4-(trifluoromethyl)-1H-imidazol-2-yl)benzyl)-2-(1-methylindolin-7-yl)-6,7-dihydropyrazolo[1,5-a]pyrimidin-5(4H)-one], for which the IC50 is 100 to 500 nM. For `COCc1cccnc1-c1ccc(CN2C(=O)CCn3nc(-c4c(Cl)cnn4C(C)C)cc32)cc1Cl` [Example 300], the IC50 is 100 to 500 nM. For the compound `COc1cn(C)nc1-c1ccc(CN2C(=O)CCn3nc(-c4c(Cl)cnn4C(C)C)cc32)cc1Cl` [Example 292], the IC50 fell in the range of 100 to 500 nM.

As for `CC(C)n1ncc(Cl)c1-c1cc2n(n1)CCC(=O)N2Cc1ccc(-c2nc(C(F)(F)F)cn2C)nc1` [Example 82], the IC50 was 100 to 500 nM. For `COc1cccnc1-c1ccc(N[C@@H]2CCCn3nc(-c4c(OC)ncnc4C4CC4)cc32)cc1F` (single isomer, unassigned) [Example 251], the IC50 is greater than 500 nM. With `COc1ncnc(C2CC2)c1-c1cc2n(n1)CC(C)(C)C(=O)N2Cc1ccc(-c2nc(C(F)(F)F)cn2C)cc1` [Example 76, 2-(4-cyclopropyl-6-methoxypyrimidin-5-yl)-6,6-dimethyl-4-(4-(1-methyl-4-(trifluoromethyl)-1H-imidazol-2-yl)benzyl)-6,7-dihydropyrazolo[1,5-α]pyrimidin-5(4H)-one] the figure was 100 to 500 nM; with `COc1ccc(-c2ccc(CN3C(=O)CCn4nc(-c5c(Cl)cnn5C(C)C)cc43)cc2Cl)nc1` [Example 285], greater than 500 nM.

These data come from patent US20230219965A1 (KSQ Therapeutics, Inc., priority 2020, published 2023).
